How the values were obtained:
[1] = test system: BMSC (primary human bone marrow mesenchymal stromal cells); test: absolute EC50 for viability; higher = less sensitive
[2] = test system: BMSC (primary human bone marrow mesenchymal stromal cells); test: drug sensitivity score (DSS); higher = more sensitive

SMILES | absolute EC50 for viability [1] [µM] | drug sensitivity score [2]
Cn1ncnc1[C@H]1c2n[nH]c(=O)c3cc(F)cc(c23)N[C@@H]1c1ccc(F)cc1 [Talazoparib] | > 1 | 1
Cc1ccc(NC(=O)c2ccc(CN3CCN(C)CC3)cc2)cc1Nc1nccc(-c2cccnc2)n1 [Imatinib] | > 10 | 5.8
COc1cc2nccc(Oc3ccc(NC(=O)NC4CC4)c(Cl)c3)c2cc1C(N)=O [Lenvatinib] | > 2.5 | 5.2
Nc1ncn([C@H]2C[C@H](O)[C@@H](CO)O2)c(=O)n1 [Decitabine] | > 10 | 0
CCCS(=O)(=O)Nc1ccc(F)c(C(=O)c2c[nH]c3ncc(-c4ccc(Cl)cc4)cc23)c1F [Vemurafenib] | > 10 | 0
Oc1ccc2c(c1)CC[C@H](c1ccccc1)[C@@H]2c1ccc(OCCN2CCCC2)cc1 [Lasofoxifene] | > 1 | 0.4
NC1(c2ccc(-c3nc4ccn5c(=O)[nH]nc5c4cc3-c3ccccc3)cc2)CCC1 [MK-2206] | > 1 | 5.8
Cc1nc(C(=O)NCC(=O)O)c(O)c2ccc(Oc3ccccc3)cc12 [Roxadustat] | > 10 | 0.5
CCCOc1ccn2c(C(C)=O)cc(-c3ccccc3S(C)(=O)=O)c2c1 [GSK2801] | > 10 | 0
CN1CC[C@H](c2c(O)cc(O)c3c(=O)cc(-c4ccccc4Cl)oc23)[C@H](O)C1 [Alvocidib] | 0.739 | 10.8
O=C(NCc1ccncc1)C12CC3CC(C1)CC(c1ccc(Cl)cc1)(C3)C2 | > 50 | 3.3
O=C(O)c1ccc2c(c1)nc(Nc1cccc(Cl)c1)c1ccncc12 [Silmitasertib] | > 10 | 2.3
CC1(C)OCCn2c1nc1c(N3CCOCC3)nc(-c3cnc(N)nc3)nc12 [GDC-0084] | 0.643 | 13.2
C[C@@H](C(=O)O)c1ccc(-c2ccccc2)c(F)c1 [Tarenflurbil] | > 10 | 0
Cc1cc2c(C(=O)NC[C@H](C)c3ccccc3)c(O)c(O)cc2c(O)c1-c1c(C)cc2c(C(=O)NC[C@H](C)c3ccccc3)c(O)c(O)cc2c1O [Sabutoclax] | 7.71 | 5.6
NC(=O)c1cnc2[nH]ccc2c1NC1C2CC3CC1CC(O)(C3)C2 (stereo not given) [Peficitinb] | > 2.5 | 1.7
CC(=O)N(O)CCCCCNC(=O)CCC(=O)N(O)CCCCCNC(=O)CCC(=O)N(O)CCCCCN [Deferoxamine] | > 10 | 0
CNC(=O)c1cc(Oc2ccc(NC(=O)Nc3ccc(Cl)c(C(F)(F)F)c3)cc2)ccn1 [Sorafenib] | > 1 | 0
C[C@]1(c2nc3c(C(N)=O)cccc3[nH]2)CCCN1 [Veliparib] | > 10 | 0
CCOC(=O)C1=CCCC[C@H]1S(=O)(=O)Nc1ccc(F)cc1Cl [Resatorvid] | 9.93 | 0

SMILES | absolute EC50 for viability [1] [µM] | drug sensitivity score [2]
C=C1C[C@@H]2[C@H](CC[C@]3(C)C(=O)CC[C@@H]23)[C@@]2(C)C=CC(=O)C=C12 [Exemestane] | > 10 | 0
CNC(=O)c1ccc(-c2cnc3ncc(Cc4ccc5ncccc5c4)n3n2)cc1F [Capmatinib] | > 1 | 0.5
CN1CCN(c2ccc(C(=O)Nc3n[nH]c4ccc(Cc5cc(F)cc(F)c5)cc34)c(NC3CCOCC3)c2)CC1 [Entrectinib] | > 1 | 0.8
C=CC(=O)N1CCC[C@@H](n2nc(-c3ccc(Oc4ccccc4)cc3)c3c(N)ncnc32)C1 [Ibrutinib] | > 1 | 0
CS(=O)(=O)c1ccc(-c2cnc(N)c(C(=O)Nc3ccccc3)n2)cc1 [VE-821] | > 10 | 0
CC(C)Cn1cnc2c(N)nc3ccccc3c21 [Imiquimod] | > 2.5 | 0
COc1cc(C)c(/C=C/C(C)=C/C=C/C(C)=C/C(=O)O)c(C)c1C [Acitretin] | > 10 | 0
CC(C)(C)C[C@@H]1N[C@@H](C(=O)N[C@H]2CC[C@H](O)CC2)[C@H](c2cccc(Cl)c2F)[C@]12C(=O)Nc1cc(Cl)ccc12 | 2.49 | 10.5
CCCC(CCC)C(=O)O [Valproic acid] | > 1000 | 0
COc1cc(CCc2cc(NC(=O)c3ccc(N4CC(C)NC(C)C4)cc3)n[nH]2)cc(OC)c1 (stereo not given) [AZD4547] | > 1 | 1
Cc1ccc(Nc2nccc(N(C)c3ccc4c(C)n(C)nc4c3)n2)cc1S(N)(=O)=O [Pazopanib] | > 10 | 2.1
COc1ccc(-c2nc(N3CCOCC3)c3sc(CN(C)c4ncc(C(=O)NO)cn4)cc3n2)cn1 [CUDC-907] | 0.0649 | 24.6
COc1ncc(-c2ccc3nccc(-c4ccnnc4)c3c2)cc1NS(=O)(=O)c1ccc(F)cc1F [Omipalisib] | 0.0979 | 11.6
COc1cc2ncnc(Nc3ccc(F)c(Cl)c3)c2cc1OCCCN1CCOCC1 [Gefitinib] | > 10 | 3.4
COc1cc(OC)c(/C=C/S(=O)(=O)Cc2ccc(OC)c(NCC(=O)O)c2)c(OC)c1 [Rigosertib] | > 10 | 8.9
CC(C)[C@@H](CS(=O)(=O)C(C)C)N1C(=O)[C@@](C)(CC(=O)O)C[C@H](c2cccc(Cl)c2)[C@H]1c1ccc(Cl)cc1 [AMG-232] | 0.185 | 18.7
C#Cc1cccc(Nc2ncnc3cc(OCCOC)c(OCCOC)cc23)c1 [Erlotinib] | > 10 | 1.5
CC1CCC(n2c3cnccc3c3cnc(Nc4ccc5c(n4)CCN(C(=O)CO)C5)nc32)CC1 (stereo not given) [AMG-925] | > 1 | 0
Nc1ccn([C@@H]2O[C@H](CO)[C@@H](O)C2(F)F)c(=O)n1 [Gemcitabine] | > 1 | 4.5
COc1ccc(C[C@H](NC(=O)[C@H](C)NC(=O)CN2CCOCC2)C(=O)N[C@@H](Cc2ccccc2)C(=O)C2(C)CO2)cc1 (stereo in doubt) [ONX-0914] | 0.391 | 16.1

SMILES | absolute EC50 for viability [1] [µM] | drug sensitivity score [2]
C=C(c1ccc(C(=O)O)cc1)c1cc2c(cc1C)C(C)(C)CCC2(C)C [Bexarotene] | > 10 | 0
O=C(/C=C\n1cnc(-c2cc(C(F)(F)F)cc(C(F)(F)F)c2)n1)NNc1ccccn1 [Verdinexor] | > 1 | 1.6
Cc1cc2c(C(C)C)c(O)c(O)c(C=O)c2c(O)c1-c1c(C)cc2c(C(C)C)c(O)c(O)c(C=O)c2c1O [AT 101] | 28.1 | 6.1
C[C@@H]1COCCN1c1cc(C2([S@](C)(=N)=O)CC2)nc(-c2cc[nH]c3nccc2-3)n1 [AZD6738] | > 25 | 4.6
Nc1cc(C(F)(F)F)c(-c2cc(N3CCOCC3)nc(N3CCOCC3)n2)cn1 [Buparlisib] | 2.11 | 7.8
CCN1C(=O)CNc2ncc(-c3ccc(-c4nc[nH]n4)nc3C)nc21 [CC-115] | 2.86 | 6.9
CCN(CCCOc1ccc2c(Nc3cc(CC(=O)Nc4cccc(F)c4)[nH]n3)ncnc2c1)CCOP(=O)(O)O [Barasertib] | > 1 | 0.1
CC/C(=C(\c1ccccc1)c1ccc(OCCN(C)C)cc1)c1ccccc1 [Tamoxifen] | > 10 | 0
CNS(=O)(=O)Nc1nccc(Cc2c(C)c3ccc(Oc4ncccn4)cc3oc2=O)c1F | > 1 | 0
CCCCCOC(=O)Nc1nc(=O)n([C@@H]2O[C@H](C)[C@@H](O)[C@H]2O)cc1F [Capecitabine] | > 10 | 0
N#CC(c1ccnc(OCc2ccc(CN3CCOCC3)cc2)n1)c1nc2ccccc2s1 (stereo not given) [Bentamapimod] | > 10 | 0
CN(C)C[C@@H]1CCn2cc(c3ccccc32)C2=C(C(=O)NC2=O)c2cn(c3ccccc23)CCO1 [Ruboxistaurin] | 2.42 | 7
C[C@@H](NC(=O)c1ncnc(N)c1Cl)c1ncc(C(=O)Nc2cc(C(F)(F)F)c(Cl)cn2)s1 [TAK-580] | > 10 | 5.7
COc1ccc(S(=O)(=O)Nc2cccnc2Nc2ccc(O)cc2)cc1 [ABT-751] | > 10 | 5.5
CNC(=O)c1ccc(N2C(=S)N(c3cnc(C#N)c(C(F)(F)F)c3)C(=O)C23CCC3)cc1F [Apalutamide] | > 10 | 0
Cn1c(=O)n(-c2ccc(C(C)(C)C#N)cc2)c2c3cc(-c4cnc5ccccc5c4)ccc3ncc21 [Dactolisib] | 0.114 | 10.7
N#Cc1ccc(COC[C@H]2O[C@@H](n3c(NCc4ccc(Cl)c(Cl)c4)nc4c(N)ncnc43)[C@H](O)[C@@H]2O)cc1 | > 10 | 2.2
CC[C@@]1(O)C(=O)OCc2c1cc1n(c2=O)Cc2cc3c(CN(C)C)c(O)ccc3nc2-1 [Topotecan] | > 10 | 4.4
C/C=C1\NC(=O)[C@H]2CSSCC/C=C/[C@H](CC(=O)N[C@H](C(C)C)C(=O)N2)OC(=O)[C@H](C(C)C)NC1=O [Romidepsin] | 0.0097 | 23.2
O=c1ncn2nc(Sc3ccc(F)cc3F)ccc2c1-c1c(Cl)cccc1Cl [Neflamapimod] | > 10 | 0.5

Reference: the supplement of paper PMC9103864
